Results as given in publication PMC4306947, “Synthesis and Antiproliferative Activity of Thiazolyl-bis-pyrrolo[2,3-b]pyridines and Indolyl-thiazolyl-pyrrolo[2,3-c]pyridines, Nortopsentin Analogues” (Marine Drugs, 2015).
Where two headings read alike, the source gives them in different places.

Tests used:
MOLT-4 = test: NCI-60 in vitro tumor cell screen, MOLT-4; type: cell-based; details: Homo sapiens; MOLT-4, Leukemia
Protocol: (§1) All the synthesized thiazoles 1a–l, 2a–j, 3a–f and 4a–f were evaluated by the National Cancer Institute (Bethesda MD) for cytotoxicity against the NCI-60 cell line panel using standard protocols. Initially, all derivatives were tested at a single dose (10^−5 M) on the full panel of approximately 60 human tumor cell lines derived from 9 human cancer cell types, that have been grouped in disease sub-panels including leukemia, non-small-cell lung, colon, central nervous system (CNS), melanoma, ovarian, renal, prostate and breast cancers (data not shown). Compounds 1k and 4c were further selected for full evaluation at five concentration levels (10^−4–10^−8 M).
(§2) The antitumor activity of compounds 1k and 4c was given by three parameters for each cell line: GI50 (GI50 is the molar concentration of the compound that inhibits 50% net cell growth), TGI (TGI is the molar concentration of the compound leading to total inhibition of net cell growth), and LC50 (LC50 is the molar concentration of the compound that induces 50% net cell death). The average values of mean graph midpoint (MG_MID) were calculated for each of these parameters.

EKVK = test: NCI-60 in vitro tumor cell screen, EKVK; type: cell-based; details: Homo sapiens, Non-Small Cell Lung Cancer
Protocol: as §1, §2

HOP-62 = test: NCI-60 in vitro tumor cell screen, HOP-62; type: cell-based; details: Homo sapiens; HOP-62, Non-Small Cell Lung Cancer
Protocol: as §1, §2

NCI-H23 = test: NCI-60 in vitro tumor cell screen, NCI-H23; type: cell-based; details: Homo sapiens; NCI-H23, Non-Small Cell Lung Cancer
Protocol: as §1, §2

NCI-H460 = test: NCI-60 in vitro tumor cell screen, NCI-H460; type: cell-based; details: Homo sapiens; NCI-H460, Non-Small Cell Lung Cancer
Protocol: as §1, §2

HCT-116 = test: NCI-60 in vitro tumor cell screen, HCT-116; type: cell-based; details: Homo sapiens; HCT-116, Colon Cancer; measured by NCI after 72 h treatment
Protocol: as §1, §2

HT29 = test: NCI-60 in vitro tumor cell screen, HT29; type: cell-based; details: Homo sapiens, HT-29; HT29, Colon Cancer
Protocol: as §1, §2

SF-268 = test: NCI-60 in vitro tumor cell screen, SF-268; type: cell-based; details: Homo sapiens; SF-268, CNS Cancer
Protocol: as §1, §2

SF-295 = test: NCI-60 in vitro tumor cell screen, SF-295; type: cell-based; details: Homo sapiens; SF-295, CNS Cancer
Protocol: as §1, §2

SF-539 = test: NCI-60 in vitro tumor cell screen, SF-539; type: cell-based; details: Homo sapiens; SF-539, CNS Cancer
Protocol: as §1, §2

SNB-19 = test: NCI-60 in vitro tumor cell screen, SNB-19; type: cell-based; details: Homo sapiens; SNB-19, CNS Cancer
Protocol: as §1, §2

U251 = test: NCI-60 in vitro tumor cell screen, U251; type: cell-based; details: Homo sapiens, U-251; U251, CNS Cancer
Protocol: as §1, §2

LOX IMVI = test: NCI-60 in vitro tumor cell screen, LOX IMVI; type: cell-based; details: Homo sapiens, Melanoma
Protocol: as §1, §2

SK-MEL-2 = test: NCI-60 in vitro tumor cell screen, SK-MEL-2; type: cell-based; details: Homo sapiens; SK-MEL-2, Melanoma
Protocol: as §1, §2

UACC-62 = test: NCI-60 in vitro tumor cell screen, UACC-62; type: cell-based; details: Homo sapiens; UACC-62, Melanoma
Protocol: as §1, §2

NCI/ADR-RES = test: NCI-60 in vitro tumor cell screen, NCI/ADR-RES; type: cell-based; details: Homo sapiens, Ovarian Cancer
Protocol: as §1, §2

ACHN = test: NCI-60 in vitro tumor cell screen, ACHN; type: cell-based; details: Homo sapiens, Renal Cancer
Protocol: as §1, §2

CAKI-1 = test: NCI-60 in vitro tumor cell screen, CAKI-1; type: cell-based; details: Homo sapiens; CAKI-1, Renal Cancer
Protocol: as §1, §2

PC-3 = test: NCI-60 in vitro tumor cell screen, PC-3; type: cell-based; details: Homo sapiens; PC-3, Prostate Cancer
Protocol: as §1, §2

DU-145 = test: NCI-60 in vitro tumor cell screen, DU-145; type: cell-based; details: Homo sapiens; DU-145, Prostate Cancer
Protocol: as §1, §2

HS 578T = test: NCI-60 in vitro tumor cell screen, HS 578T; type: cell-based; details: Homo sapiens, Breast Cancer
Protocol: as §1, §2

BT-549 = test: NCI-60 in vitro tumor cell screen, BT-549; type: cell-based; details: Homo sapiens; BT-549, Breast Cancer
Protocol: as §1, §2

T-47D = test: NCI-60 in vitro tumor cell screen, T-47D; type: cell-based; details: Homo sapiens, T47D, Breast Cancer
Protocol: as §1, §2

NCI-60 cell line panel = test: NCI-60 cell line panel, summary over the full panel or subpanel; type: cell-based, human; details: for GI50: Homo sapiens
Protocol: as §1, §2

[1] = test system: HCT-116 colorectal carcinoma cells; test: MTT viability assay, HCT-116 cells, 24 h; type: cell-based; details: Homo sapiens, 5–100 μM, read-out: GI50 after 24 h treatment
Protocol: Nortopsentin analogues, prepared as described above, were dissolved in dimethyl sulfoxide (DMSO) and then diluted in culture medium to have a DMSO concentration not exceeding 0.1%. HCT-116 and Caco-2 cell lines were purchased from American Type Culture Collection, Rockville, MD, USA and DMEM supplemented with […], […] bovine serum (FBS), penicillin (100 U/mL), streptomycin (100 μg/mL) and gentamicin (5 μg/mL). Cells were maintained in log phase by seeding twice a week at a density of 3 × 10^8 cells/L in humidified 5% CO2 atmosphere, at 37 °C. In all experiments, HCT-116 cells were made quiescent through overnight incubation before treatment with tested compounds or vehicle alone (control cells), while Caco-2 cells were treated 15 days after confluence, at which time the cells are differentiated in normal intestinal-like cells. […]
Cytotoxic activity of the nortopsentin derivatives 1k and 4c was determined by the colorimetric assay based on the reduction of […] (MTT) to purple formazan by mitochondrial dehydrogenases. […] Cells were incubated 2 h at 37 °C, then medium was discarded by centrifugation, formazan blue formed in the cells dissolved in DMSO, and absorbance measured at 570 nm in a microplate reader (Bio-RAD, Hercules, CA, USA). […] GI50 was calculated by the curve of percent viability vs. concentration. […]

[2] = mean over the NCI full panel, read-out: GI50 mean value
[3] = range over the NCI full panel, read-out: GI50 values against most of the human cell lines (range)

Cn1cc(-c2csc(-c3c[nH]c4ncccc34)n2)c2cc(Br)cnc21 [Compound 1k, 5-Bromo-1-methyl-3-[2-(1H-pyrrolo[2,3-b]pyridin-3-yl)-1,3-thiazol-4-yl]-1H-pyrrolo[2,3-b]pyridine]
GI50 (MOLT-4): > 100000 nM | GI50 (EKVK): 1270 nM | GI50 (HOP-62): 2390 nM | GI50 (NCI-H23): 2800 nM | GI50 (NCI-H460): 2980 nM | GI50 (HCT-116): 2910 nM | GI50 (HT29): 6750 nM | GI50 (SF-268): 6010 nM | GI50 (SF-295): 3010 nM | GI50 (SF-539): 27700 nM | GI50 (SNB-19): 6740 nM | GI50 (U251): 2700 nM | GI50 (LOX IMVI): 4260 nM | GI50 (SK-MEL-2): 19800 nM | GI50 (UACC-62): 3470 nM | GI50 (NCI/ADR-RES): 3880 nM | GI50 (ACHN): 2350 nM | GI50 (CAKI-1): 1560 nM | GI50 (PC-3): 4350 nM | GI50 (DU-145): 3510 nM | GI50 (HS 578T): 2430 nM | GI50 (BT-549): 20500 nM | GI50 (T-47D): 1800 nM | GI50 (NCI-60 cell line panel; [2]): 5260 nM | GI50 (NCI-60 cell line panel; [3]): 810 to 27700 nM | percentage of sensitive cell lines out of the total number of cell lines investigated (NCI-60 cell line panel; NCI full panel): 89% | GI50 [1]: 33600 ± 2310 nM

Clc1nccc2c(-c3csc(-c4c[nH]c5ccc(Br)cc45)n3)c[nH]c12 [Compound 4c, 3-[2-(5-Bromo-1H-indol-3-yl)-1,3-thiazol-4-yl]-7-chloro-1H-pyrrolo[2,3-c]pyridine]
GI50 (MOLT-4): 3020 nM | GI50 (EKVK): 3110 nM | GI50 (HOP-62): 2110 nM | GI50 (NCI-H23): 2420 nM | GI50 (NCI-H460): 2160 nM | GI50 (HCT-116): 2350 nM | GI50 (HT29): 2660 nM | GI50 (SF-268): 4060 nM | GI50 (SF-295): 2480 nM | GI50 (SF-539): 1870 nM | GI50 (SNB-19): 3250 nM | GI50 (U251): 2050 nM | GI50 (LOX IMVI): 1630 nM | GI50 (SK-MEL-2): 4090 nM | GI50 (UACC-62): 2190 nM | GI50 (NCI/ADR-RES): 2710 nM | GI50 (ACHN): 2020 nM | GI50 (CAKI-1): 1960 nM | GI50 (PC-3): 3860 nM | GI50 (DU-145): 1760 nM | GI50 (HS 578T): 3700 nM | GI50 (BT-549): 4700 nM | GI50 (T-47D): 3120 nM | GI50 (NCI-60 cell line panel; all renal cancer subpanel cell lines, read-out: GI50 range, renal cancer subpanel): 930 to 4160 nM | GI50 (NCI-60 cell line panel; [2]): 2590 nM | GI50 (NCI-60 cell line panel; [3]): 930 to 4700 nM | percentage of sensitive cell lines out of the total number of cell lines investigated (NCI-60 cell line panel; NCI full panel): 100% | percentage of cell lines with positive LC50 values (NCI-60 cell line panel; NCI full panel, data not shown): 81% | percentage of cell lines with positive TGI values (NCI-60 cell line panel; NCI full panel, data not shown): 98% | GI50 [1]: 13200 ± 950 nM
